Two compounds from article PMC7694178, “Poziotinib Inhibits the Efflux Activity of the ABCB1 and ABCG2 Transporters and the Expression of the ABCG2 Transporter Protein in Multidrug Resistant Colon Cancer Cells” (Cancers, 2020) can be followed below.

One data set concerns the target T1, ABCG2 transporter (Homo sapiens, UniProt Q9UNQ0).
T1 sequence (Q9UNQ0 1-655): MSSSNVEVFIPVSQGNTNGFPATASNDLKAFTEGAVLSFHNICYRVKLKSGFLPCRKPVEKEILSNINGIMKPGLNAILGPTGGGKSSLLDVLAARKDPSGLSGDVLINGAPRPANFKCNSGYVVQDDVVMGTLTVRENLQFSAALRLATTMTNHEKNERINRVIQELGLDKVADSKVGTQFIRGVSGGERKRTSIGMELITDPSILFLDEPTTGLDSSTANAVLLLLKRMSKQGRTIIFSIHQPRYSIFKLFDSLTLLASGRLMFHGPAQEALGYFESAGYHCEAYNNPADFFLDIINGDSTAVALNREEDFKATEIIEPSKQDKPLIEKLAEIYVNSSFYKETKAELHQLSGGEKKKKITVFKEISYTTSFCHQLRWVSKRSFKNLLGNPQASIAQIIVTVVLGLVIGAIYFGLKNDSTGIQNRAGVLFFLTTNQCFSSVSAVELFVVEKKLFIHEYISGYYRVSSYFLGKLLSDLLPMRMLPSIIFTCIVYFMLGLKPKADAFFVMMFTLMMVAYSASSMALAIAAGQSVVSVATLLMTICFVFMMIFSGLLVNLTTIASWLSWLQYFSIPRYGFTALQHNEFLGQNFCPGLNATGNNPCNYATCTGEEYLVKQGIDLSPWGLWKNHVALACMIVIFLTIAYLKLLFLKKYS
The data set can be described thus: ATPase stimulation assay (ABCG2 expressed in High Five insect cells); supported by [3H]-mitoxantrone accumulation and efflux in S1-M1-80 cells. The format is biochemical.

Data set [1] concerns the target T2, ABCB1 transporter (Homo sapiens, UniProt P08183). Briefly: ATPase stimulation assay (ABCB1 expressed in High Five insect cells); supported by [3H]-paclitaxel accumulation and efflux in SW620/Ad300 cells. It is filed as biochemical.
The target in data set [2] is T2, ABCB1 transporter.

T2 sequence (P08183 whole entry): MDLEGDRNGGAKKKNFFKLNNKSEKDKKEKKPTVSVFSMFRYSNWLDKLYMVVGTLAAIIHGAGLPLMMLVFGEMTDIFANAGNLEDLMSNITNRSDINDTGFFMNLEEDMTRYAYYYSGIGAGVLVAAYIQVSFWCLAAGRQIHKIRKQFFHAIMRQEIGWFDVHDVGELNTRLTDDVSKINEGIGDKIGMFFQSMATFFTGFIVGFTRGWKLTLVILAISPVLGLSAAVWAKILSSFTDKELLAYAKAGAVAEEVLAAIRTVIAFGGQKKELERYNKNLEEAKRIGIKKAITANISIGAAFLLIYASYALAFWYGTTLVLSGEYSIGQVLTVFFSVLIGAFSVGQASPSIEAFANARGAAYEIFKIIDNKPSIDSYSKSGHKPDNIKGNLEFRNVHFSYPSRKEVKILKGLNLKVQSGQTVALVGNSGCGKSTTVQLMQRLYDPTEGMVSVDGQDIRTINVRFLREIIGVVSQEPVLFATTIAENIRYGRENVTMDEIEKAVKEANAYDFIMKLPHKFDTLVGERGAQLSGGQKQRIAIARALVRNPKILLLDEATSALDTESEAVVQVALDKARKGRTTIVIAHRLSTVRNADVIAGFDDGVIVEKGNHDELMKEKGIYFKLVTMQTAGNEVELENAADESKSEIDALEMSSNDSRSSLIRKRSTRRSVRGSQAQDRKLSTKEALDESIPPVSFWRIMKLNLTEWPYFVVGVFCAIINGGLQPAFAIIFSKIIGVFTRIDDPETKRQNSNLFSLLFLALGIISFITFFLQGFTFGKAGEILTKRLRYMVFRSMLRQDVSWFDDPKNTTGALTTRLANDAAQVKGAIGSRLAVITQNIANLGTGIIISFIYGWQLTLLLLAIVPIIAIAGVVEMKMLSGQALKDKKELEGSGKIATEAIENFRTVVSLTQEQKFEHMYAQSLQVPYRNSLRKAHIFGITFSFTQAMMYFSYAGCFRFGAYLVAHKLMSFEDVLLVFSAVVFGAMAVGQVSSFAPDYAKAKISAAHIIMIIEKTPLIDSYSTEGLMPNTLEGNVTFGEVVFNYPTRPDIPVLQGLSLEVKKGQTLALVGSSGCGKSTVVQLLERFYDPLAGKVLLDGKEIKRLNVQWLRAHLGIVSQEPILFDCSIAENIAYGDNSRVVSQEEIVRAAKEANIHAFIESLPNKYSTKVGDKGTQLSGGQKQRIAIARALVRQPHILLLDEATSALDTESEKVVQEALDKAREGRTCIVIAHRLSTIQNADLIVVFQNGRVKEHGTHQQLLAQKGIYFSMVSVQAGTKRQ

Consider `C=CC(=O)N1CCC(Oc2cc3c(Nc4ccc(Cl)c(Cl)c4F)ncnc3cc2OC)CC1` [poziotinib], for which the EC50 (usually the concentration needed to bring the measured effect to its halfway point) on ABCG2 transporter was found to be 0.21 µM; at ABCB1 transporter [1], 0.02 µM.
Take `CC(=O)O[C@H]1C(=O)[C@@]2(C)[C@H]([C@H](OC(=O)c3ccccc3)[C@]3(O)C[C@H](OC(=O)[C@H](O)[C@@H](NC(=O)c4ccccc4)c4ccccc4)C(C)=C1C3(C)C)[C@]1(OC(C)=O)CO[C@@H]1C[C@@H]2O` [paclitaxel]: the “radiolabelled substrate accumulation and efflux in SW620/Ad300 vs SW620 cells” value at ABCB1 transporter [2] is “overexpression of the ABCB1 transporter increases the efflux of the substrate, [^3H]-paclitaxel”.
